Measured values taken from PubChem BioAssay (NCI).
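Assay format: 96-well plates, 48-hour exposure. GI50 = concentration required for 50% inhibition of growth. TGI marks complete inhibition of growth.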

Legend:
Assay in all cases: NCI anticancer screen, dose series, 48 h
[1] = system: A498 renal
[2] = system: A549 NSCLC
[3] = system: COLO 205 colon
[4] = system: HOP-62 NSCLC
[5] = system: MCF7 breast
[6] = system: MDA-MB-231 breast
[7] = system: PC-3 prostate
[8] = system: SK-OV-3 ovarian
[9] = system: SN12C renal
[10] = system: SW-620 colon

| SMILES | TGI [1] | TGI [2] | TGI [3] | TGI [4] | TGI [5] | TGI [6] | TGI [7] | TGI [8] | TGI [9] | TGI [10] | GI50 [1] | GI50 [3] | GI50 [4] | GI50 [6] | GI50 [8] | GI50 [9] | GI50 [10] | GI50 [2] | GI50 [5] | GI50 [7] |
| --- | --- | --- | --- | --- | --- | --- | --- | --- | --- | --- | --- | --- | --- | --- | --- | --- | --- | --- | --- | --- |
| O=c1cc(N=Nc2ccc(O)cc2)[nH]c(=O)[nH]1 | > 100 µM | > 100 µM | > 100 µM | > 100 µM | > 100 µM | > 100 µM | > 100 µM | > 100 µM | > 100 µM | > 100 µM | – | – | – | – | – | – | – | – | – | – |
| CC(C)(C#N)c1cc(C(=O)Nc2cc(Nc3ncccc3-c3ncnc4nc[nH]c34)ccc2F)cc(C(F)(F)F)c1 | 0.844 µM | > 10 µM | – | > 10 µM | > 4.6 µM | – | > 4.27 µM | > 10 µM | > 10 µM | > 10 µM | 0.126 µM | 0.131 µM | 0.463 µM | 0.27 µM | > 2.38 µM | 1.42 µM | 0.58 µM | – | – | – |
| O=C(CN(/C=C/C(=O)C(F)(F)F)c1ccccc1)c1ccc(Cl)c(Cl)c1 | 27.4 µM | 29.8 µM | 42.4 µM | > 100 µM | 55.3 µM | 26.3 µM | 26.9 µM | 40.1 µM | 28.3 µM | 30.1 µM | 14.2 µM | 19.5 µM | 28.3 µM | 12.8 µM | 21.1 µM | 15.1 µM | 14.6 µM | 13.4 µM | 5.2 µM | 13.3 µM |
| CC(C)c1ccc(Nc2nccc(-c3cnn4ncccc34)n2)cc1 | 1.48 µM | 3.65 µM | 0.704 µM | 2.59 µM | – | > 17.9 µM | > 12.3 µM | 2.89 µM | > 17.9 µM | 9.07 µM | 0.542 µM | 0.306 µM | 0.563 µM | 0.726 µM | 0.93 µM | 0.66 µM | 0.516 µM | 0.6 µM | 0.0653 µM | 0.615 µM |
| COc1ccc2c(c1)C(C)Cc1c(Cl)nc(C)nc1N2C (stereo not given) | 25 µM | 24.4 µM | 5.53 µM | 36.3 µM | 32.7 µM | 34.9 µM | > 100 µM | 26.7 µM | 25.1 µM | 24.4 µM | 6.79 µM | 2.07 µM | 2.22 µM | 4.34 µM | 2.79 µM | 7.22 µM | 2.45 µM | 3 µM | 0.791 µM | 2.99 µM |
| CCCc1cc(=O)n2c(C(=O)Nc3ccccc3OC)c(C(=O)Nc3ccc(F)cc3)sc2n1 | 97.1 µM | 20.2 µM | > 160 µM | 13.9 µM | 115 µM | 11.2 µM | 12.9 µM | 96.7 µM | – | > 160 µM | 34.3 µM | 38.2 µM | 2.21 µM | 3.29 µM | 22.2 µM | – | 31 µM | 5.27 µM | 14.6 µM | 3.61 µM |
| CCCOC(=O)CCn1c(SC)nc2[nH]cc(-c3ccccc3)c2c1=O | 87.9 µM | 65.8 µM | 46.5 µM | 88.2 µM | > 100 µM | > 100 µM | 50.1 µM | > 100 µM | > 100 µM | > 100 µM | 27.9 µM | 19.1 µM | 5.49 µM | 38.3 µM | 38.3 µM | 20.1 µM | 28.3 µM | 15.8 µM | 19.7 µM | 14.6 µM |
| COc1cc(C2C3=C(COC3=O)Nc3cc4c(cc32)CCC4)cc2c1OCO2 (stereo not given) | 0.0964 µM | 12.7 µM | 0.139 µM | 12 µM | 13.3 µM | 5.11 µM | 18.2 µM | 1.01 µM | 20.2 µM | 13.2 µM | 0.025 µM | 0.0407 µM | 0.0471 µM | 0.0577 µM | 0.0335 µM | 0.0595 µM | 0.0413 µM | 0.061 µM | 0.0349 µM | 0.049 µM |
| CSc1ccccc1C#Cc1ccccc1C#CCCCCO | 14.3 µM | 27.1 µM | 31.5 µM | > 100 µM | 39.2 µM | 13.2 µM | 38 µM | 30.1 µM | 30.7 µM | 26.2 µM | 2.24 µM | 15.8 µM | 24.9 µM | 2.57 µM | 15.8 µM | 16 µM | 11 µM | 12.6 µM | 19.1 µM | 16.2 µM |
| COc1cc2c3c(n(C)c(=O)c2cc1OC)-c1cc2c(cc1/C3=C\C(N)CN)OCO2 (stereo not given) | 9.77 µM | 21.1 µM | 12.1 µM | 8.91 µM | 7 µM | > 53.3 µM | 20.5 µM | 13.1 µM | > 26.4 µM | 11.9 µM | 1.37 µM | 2.08 µM | 1.29 µM | 4.15 µM | 2.45 µM | 1.81 µM | 0.689 µM | 3.5 µM | 0.51 µM | 5.27 µM |
| Nc1ccc(-c2ccc(N)cc2I)c(I)c1 | 24.1 µM | > 100 µM | 38.1 µM | 39.4 µM | 58.1 µM | 46.4 µM | 47.6 µM | 44.4 µM | 55.8 µM | 81.7 µM | 10.7 µM | 17 µM | 17.5 µM | 16.6 µM | 17 µM | 19.7 µM | 19.4 µM | 29.9 µM | 18.4 µM | 16.3 µM |
| CCCCCCCOc1c(OC)cc(C2CC(=O)Nc3c2c(C)nn3-c2nc3ccccc3[nH]2)cc1OC (stereo not given) | 3.9 µM | > 100 µM | > 100 µM | 14.2 µM | > 100 µM | 4.12 µM | > 100 µM | 7.55 µM | > 100 µM | 5.18 µM | 0.881 µM | 4.34 µM | 3.09 µM | 1.98 µM | 2.77 µM | 3.48 µM | 2.11 µM | 4.18 µM | 2.91 µM | 3.67 µM |
| Cc1ccc2c(c1)C(=O)c1c-2n(CCCBr)c(=O)c2cc([N+](=O)[O-])ccc12 | > 100 µM | > 100 µM | > 100 µM | > 100 µM | > 100 µM | > 100 µM | > 100 µM | > 100 µM | > 100 µM | > 100 µM | 51.7 µM | 87.4 µM | 24.4 µM | 58.8 µM | > 100 µM | 46.4 µM | 51.6 µM | > 100 µM | 4.46 µM | 17.4 µM |
| CCCOc1nc(SCCC)nc2c1cnn2-c1ccccc1 | > 100 µM | > 100 µM | > 100 µM | > 100 µM | > 100 µM | > 100 µM | > 100 µM | > 100 µM | > 100 µM | > 100 µM | > 100 µM | > 100 µM | > 100 µM | > 100 µM | > 100 µM | > 100 µM | > 100 µM | > 100 µM | > 100 µM | 30.7 µM |
| CCCCN(CCCC)c1ccc(C(=NC(C)CCCN(CC)CC)c2ccc(N(C)C)cc2)cc1 (stereo not given) | 2.39 µM | 2.57 µM | 1.69 µM | 1.63 µM | 1.95 µM | 1.82 µM | 1.93 µM | 2.33 µM | – | 1.68 µM | 0.789 µM | 0.85 µM | 0.829 µM | 0.863 µM | 1.14 µM | – | 0.793 µM | 1.01 µM | 0.836 µM | 0.885 µM |
| CC(C)N1C(NNC(=O)c2cnccn2)=NS(=O)(=O)c2ccccc21 | > 100 µM | > 100 µM | > 100 µM | – | > 100 µM | > 100 µM | > 100 µM | > 100 µM | > 100 µM | > 100 µM | > 100 µM | > 100 µM | – | > 100 µM | > 100 µM | > 100 µM | > 100 µM | > 100 µM | > 100 µM | > 100 µM |
| N=C(N)c1ccc(COc2ccccc2OCc2ccc(C(=N)N)cc2)cc1 | – | > 100 µM | > 100 µM | 48.9 µM | > 100 µM | > 100 µM | > 100 µM | > 100 µM | 89.3 µM | > 100 µM | – | > 100 µM | 18.9 µM | 32.9 µM | > 100 µM | 6.6 µM | 43.5 µM | 57.5 µM | 46.5 µM | 36.3 µM |
| CCOc1ccccc1/C=N\N=C(\N)N/N=C/c1ccccc1OCC | > 100 µM | > 100 µM | – | > 100 µM | > 100 µM | > 100 µM | > 100 µM | > 100 µM | > 100 µM | > 100 µM | 2.42 µM | – | 5.73 µM | 4.69 µM | 2.93 µM | 5.89 µM | 2.46 µM | 4.25 µM | 1.01 µM | 3.14 µM |
| CCOC(=O)c1nc(Nc2ccc(Cl)cc2)c2ccccc2n1 | – | 26.2 µM | 20.6 µM | > 50 µM | > 50 µM | 42 µM | > 50 µM | 24 µM | 27.4 µM | > 50 µM | – | 9.8 µM | 16.4 µM | 14.1 µM | 10.6 µM | 11.5 µM | 17.2 µM | 11.3 µM | 13.6 µM | 11.6 µM |
| Cc1cn2c(/C=N/Nc3ccccn3)c(-c3ccc(Cl)c([N+](=O)[O-])c3)nc2s1 | – | 21.9 µM | > 50 µM | 18.9 µM | > 50 µM | 18.2 µM | > 50 µM | 22.5 µM | 42.4 µM | > 50 µM | – | > 50 µM | 10.7 µM | 6.73 µM | 9.95 µM | 14.3 µM | 44.1 µM | 8.7 µM | 3.27 µM | 20.8 µM |
